Among the data in ChEMBL document CHEMBL1133897, “Synthesis, antimalarial activity and inhibition of haem detoxification of novel bisquinolines” (Bioorg Med Chem Lett, 2001) are IC50 values, retold here.

As usually defined, the pIC50 is the IC50 on a negative log10 scale, so that one unit is a factor of ten. The low end stands for a large IC50, the high end for a small IC50.

Assay [1] concerns Plasmodium falciparum. As to the kind of experiment: Growth inhibition of chloroquine-resistant Plasmodium falciparum KI. In kind it is functional, organism-based.
For assay [2], the system named is Plasmodium falciparum. As to the kind of experiment: Growth inhibition of chloroquine-sensitive Plasmodium falciparum D10. It is filed as functional, organism-based.
The target in assay [3] is T1, Histidine-rich protein PFHRP-II (Plasmodium falciparum, UniProt P05227).
T1 sequence (P05227 whole entry): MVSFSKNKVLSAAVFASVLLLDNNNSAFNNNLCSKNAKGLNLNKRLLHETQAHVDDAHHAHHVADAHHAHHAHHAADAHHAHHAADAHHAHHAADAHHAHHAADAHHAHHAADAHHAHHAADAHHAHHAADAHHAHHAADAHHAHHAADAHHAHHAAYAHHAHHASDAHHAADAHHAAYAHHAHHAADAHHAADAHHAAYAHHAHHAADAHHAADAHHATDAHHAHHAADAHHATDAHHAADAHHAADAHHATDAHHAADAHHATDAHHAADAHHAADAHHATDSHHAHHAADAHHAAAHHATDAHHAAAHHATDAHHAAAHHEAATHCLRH
The assay can be described thus: Inhibition of beta-hematin formation in Plasmodium falciparum. In kind it is functional.

Assay [4] has as its system Plasmodium falciparum. As to the kind of experiment: Inhibition of hydrogen peroxide-mediated haem detoxification in Plasmodium falciparum. It is filed as functional, organism-based.

pIC50: −log10 of the molar value.

`CCC1CN2CCC1CC2C(O)c1ccnc2c(CNC(=O)CCCCCCCCC(=O)Nc3cccc4c(C(O)C5CC6CCN5CC6CC)ccnc34)cccc12` (stereo unspecified): the negative logarithm of the IC50 (pIC50) in the assay with Plasmodium falciparum [1] is 7.70; in the assay with Plasmodium falciparum [2] it was 7.30.

On to `CCN(CC)CCCC(C)Nc1cc(CCCCCCCCc2cc(NC(C)CCCN(CC)CC)c3ccccc3n2)nc2ccccc12` (stereo unspecified), for which the negative logarithm of the IC50 (pIC50) in assay [3] was 4.01; in the assay with Plasmodium falciparum [4], 4.09; in the assay with Plasmodium falciparum [1], 7.60; in the assay with Plasmodium falciparum [2], 6.91.

Consider `CCN(CC)CCCC(C)Nc1cc(CCCCCCCCCCc2cc(NC(C)CCCN(CC)CC)c3ccccc3n2)nc2ccccc12` (stereo unspecified), for which the pIC50 in assay [3] was 4.03; in the assay on Plasmodium falciparum [4] it was 4.10; in the assay on Plasmodium falciparum [1], 7.80; in the assay on Plasmodium falciparum [2], 6.81.

`CCN(CC)CCCC(C)Nc1cc(CCCCCCCCCCCCc2cc(NC(C)CCCN(CC)CC)c3ccccc3n2)nc2ccccc12` (stereo unspecified): the pIC50 in assay [3] was 4.07; in the assay with Plasmodium falciparum [4], 4.43; in the assay on Plasmodium falciparum [1], 7.77; in the assay with Plasmodium falciparum [2] it was 7.37.

Turning to `OC(c1cc(C(F)(F)F)nc2c(C(F)(F)F)cccc12)C1CCCCN1` (stereo unspecified) [MEFLOQUINE], the pIC50 in the assay with Plasmodium falciparum [4] is 4.52; with Plasmodium falciparum [2], 7.05.
